# According to PMC6874530, “Structural analysis identifies an escape route from the adverse lipogenic effects of liver X receptor ligands” (Communications Biology, 2019):
# Legend:
# LXRβ LBD = target: T1, LXRβ LBD (Homo sapiens, UniProt P55055); settings: LXRβ over LXRα binding
# T1 sequence (P55055 215-460 limits assumed): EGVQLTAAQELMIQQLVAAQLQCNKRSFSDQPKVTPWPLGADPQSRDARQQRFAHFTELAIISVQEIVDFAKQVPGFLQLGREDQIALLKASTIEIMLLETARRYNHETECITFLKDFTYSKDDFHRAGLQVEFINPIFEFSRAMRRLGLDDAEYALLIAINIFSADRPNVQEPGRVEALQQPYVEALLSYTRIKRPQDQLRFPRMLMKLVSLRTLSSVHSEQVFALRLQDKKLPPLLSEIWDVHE
# Source text: The compounds were run in triplicate (binding assay) or in quadruplicate (transactivation assay). Standard deviations are indicated for individual experiments run more than once.
# plasma triglycerides = test system: plasma triglycerides; set-up: method as in van der Hoorn et al. 2011; settings: AZ876 high dose 20 µmol·kg−1·day−1, GW3965 at a similar dose; ref van der Hoorn et al. 2011; cited from earlier work
# LXR KO macrophages = assay: LXR target gene expression in LXR KO macrophages; format: cell-based; settings: reply to reviewers
# LXRβ/SRC1 = target: T2, LXRβ/SRC1 (Homo sapiens, UniProt P55055); assay: SPR cofactor recruitment, LXRβ LBD binding to immobilized SRC1 coactivator peptide; settings: LXRβ LBD 0.02–10 µM equilibrated with compound (50 μM), immobilized SRC1 peptide; read-out: LXRβ/SRC1 Kd
# T2 construct: human his-tagged LXRβ LBD (216-461); His tag; made in house; host or cells: Escherichia coli BL21(DE3)
# T2 sequence (P55055 215-460 limits assumed): T1 sequence (P55055 215-460 limits assumed)
# T2 sequence (Q15788 with tags, fused parts or gaps partner limits assumed): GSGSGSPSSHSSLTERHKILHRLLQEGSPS
# Method: (§1) The peptides carried an N-terminal biotin for surface immobilization on a Xantec NID200M Sensor Chip (NTA-derivatized carboxymethyldextran hydrogel, XanTec bioanalytics GmbH) preloaded with Ni^2+. […] LXRα and LXRβ LBD proteins were serially diluted in SPR running buffer (10 mM HEPES, 150 mM NaCl, and 0.05% Tween 20, pH 7.4) to a broad range of concentrations (0.02–10 µM) and equilibrated with tested compound (50 μM) prior to the sample injection over a modified biosensor surface. LXR-ligand complexes were injected in quick succession for 120 s over immobilized cofactor peptides and reference surfaces along with blank samples followed by 900 s of dissociation. The binding level at equilibrium was monitored for all samples, including the reference sample that contained DMSO at equal amount as tested compounds. All data were normalized to this reference sample in order to quantify the effects on peptide binding without bias by receptor instability. The surface was regenerated with 0.5% (w/v) SDS after each injection. Binding responses in the steady-state region of the sensorgrams were plotted against LXR LBD concentration to determine the overall equilibrium-binding affinity by fitting the data to nonlinear regression (Prism 8; GraphPad).
# LXRβ/NCOR1 = target: T3, LXRβ/NCOR1 (Homo sapiens, UniProt P55055); assay: SPR cofactor recruitment, LXRβ LBD binding to immobilized NCOR1 corepressor peptide
# T3 construct: human his-tagged LXRβ LBD (216-461); His tag; made in house; host or cells: Escherichia coli BL21(DE3)
# T3 sequence (P55055 215-460 limits assumed): T1 sequence (P55055 215-460 limits assumed)
# Method: as §1
# ABCA1 mRNA = assay: human whole blood assay, ABCA1 mRNA; format: cell-based; settings: preliminary results, reply to reviewers
# [1] = quantification of drug concentration in plasma of mice; format: in vivo, mouse; settings: oral gavage
# Method: Solid compounds were solubilized in PEG400/Ethanol/Solutol/Water solution (36.3/9.1/4.6/50%). Compounds were given daily by oral gavage, 5 ml kg^−1, at doses ranging from 0.1 to 100 μmol kg^−1 of body weight for 4 days. Animals were terminated 3 h after the last dose.
# At termination, the whole-blood volume was drawn from isoflurane-anesthetized mice via an incision in the carotid artery into EDTA blood tubes (S-Monovette®, EDTA KE/1.3 mL, Sarstedt, Nümbrecht, Germany or BD Microtainers®, Benton, Dickinson and Company, Franklin Lakes, New Jersey, USA). Blood samples were placed on ice and centrifuged within an hour (15 min, 2500 × g, 4 °C or 5 min, 16000 × g, 4 °C). The plasma was then dispensed in separate tubes and kept at −80 °C for later analysis of compound concentration and TG levels. For the analysis of intestinal Abca1 transcript levels, a 3–5-mm long segment of the duodenum was excised and cleared from any gut contents. Tissues were instantly snap frozen in liquid nitrogen and stored at −80 °C.
# About 25 µL of plasma was precipitated with 150 µL of cold acetonitrile containing 0.2% formic acid. After vortexing followed by 20 min of centrifugation at 3220 × g and 4 °C, the supernatant was diluted 1:1 with 0.2% formic acid (aqueous phase). […]
# LXRα/SRC1 = target: T4, LXRα/SRC1 (Homo sapiens, UniProt Q13133); assay: SPR cofactor recruitment, LXRα LBD binding to immobilized SRC1 coactivator peptide; settings: LXRα LBD 0.02–10 µM equilibrated with compound (50 μM)
# T4 construct: Human his-tagged LXRα LBD (200-447); His tag; made in house; host or cells: Escherichia coli BL21(DE3)
# T4 sequence (Q13133 200-447): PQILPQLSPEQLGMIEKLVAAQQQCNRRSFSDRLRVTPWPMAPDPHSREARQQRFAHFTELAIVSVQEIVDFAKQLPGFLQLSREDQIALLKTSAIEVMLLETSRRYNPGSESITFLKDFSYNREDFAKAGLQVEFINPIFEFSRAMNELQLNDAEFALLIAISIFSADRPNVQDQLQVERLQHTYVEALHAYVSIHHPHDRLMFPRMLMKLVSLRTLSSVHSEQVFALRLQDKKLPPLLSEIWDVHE
# T4 sequence (Q15788 with tags, fused parts or gaps partner limits assumed): T2 sequence (Q15788 with tags, fused parts or gaps partner limits assumed)
# Method: as §1
structure (smiles),measurement,setting,value
CC(C)(C)N1C(=O)C(Cc2ccccc2)=C(NC2CCN(c3ncc(CC(=O)O)cc3Cl)CC2)C1=O [AZ7],LXRβ binding selectivity,LXRβ LBD,more than tenfold
"O=C(O)Cc1cccc(OCCCN(Cc2cccc(C(F)(F)F)c2Cl)CC(c2ccccc2)c2ccccc2)c1 [GW3965, reference compound]",increase of plasma triglyceride levels,plasma triglycerides,70%
CC(C)(O)c1cn(-c2ccc(-c3cc(F)c(CO)c(S(C)(=O)=O)c3)cc2F)c(C(C)(C)c2c(Cl)cccc2Cl)n1 [BMS-852927],LXR target gene expression in LXR KO macrophages,LXR KO macrophages,does not induce LXR
same,Kd,LXRβ/SRC1,19.8 µM
same,effect on the LXRβ/NCOR1 interaction,LXRβ/NCOR1,enhanced the interaction
same,ABCA1 mRNA levels in human whole blood assay,ABCA1 mRNA,"induces ABCA1 mRNA levels, however with lower efficiency than full"
CN(C)C(=O)c1cnc(N2CC[C@@H](CNC3=C(c4ccccc4)S(=O)(=O)N(C(C)(C)C)C3=O)C2)c(Cl)c1 [AZ5],systemic exposure,[1],too low
CC(C)N1C(=O)C(NC2CCN(c3ncc(CC(=O)O)cc3Cl)CC2)=C(c2ccccc2)S1(=O)=O [AZ6],Kd,LXRα/SRC1,1.5 µM
